The kinase profiling compilation of Christmann-Franck et al. (2016)

Assays:
Experiment in all cases: Free Choice Kinase Assay Projects, Flashplate
AKT1 (human) = AKT1 (human) (UniProt P31749); conditions: compound 10.0 µM; ATP 3 µM
AURKA (human) = AURKA (human) (UniProt O14965); conditions: compound 10.0 µM; ATP 10 µM
AURKB (human) = AURKB (human) (UniProt Q96GD4); conditions: compound 10.0 µM; ATP 10 µM
AXL (human) = AXL (human) (UniProt P30530); conditions: compound 10.0 µM; ATP 0.3 µM
CDK2 CCNA2 (human) = CDK2 CCNA2 (human) (UniProt P24941+P20248); conditions: compound 10.0 µM; ATP 0.3 µM
CDK4 CCND1 (human) = CDK4 CCND1 (human) (UniProt P11802+P24385); conditions: compound 10.0 µM; ATP 3 µM
Chain of CDK4 CCND1 (human) (P11802 whole entry, looked up): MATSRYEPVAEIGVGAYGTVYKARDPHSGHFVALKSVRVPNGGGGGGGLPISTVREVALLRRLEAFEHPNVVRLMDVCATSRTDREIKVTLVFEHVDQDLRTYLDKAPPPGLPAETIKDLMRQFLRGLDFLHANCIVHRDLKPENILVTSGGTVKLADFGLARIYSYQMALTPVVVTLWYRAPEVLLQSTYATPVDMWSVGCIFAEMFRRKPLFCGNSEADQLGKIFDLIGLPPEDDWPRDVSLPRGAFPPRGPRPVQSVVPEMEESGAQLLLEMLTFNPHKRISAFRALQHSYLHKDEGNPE
Chain of CDK4 CCND1 (human) (P24385 whole entry, looked up): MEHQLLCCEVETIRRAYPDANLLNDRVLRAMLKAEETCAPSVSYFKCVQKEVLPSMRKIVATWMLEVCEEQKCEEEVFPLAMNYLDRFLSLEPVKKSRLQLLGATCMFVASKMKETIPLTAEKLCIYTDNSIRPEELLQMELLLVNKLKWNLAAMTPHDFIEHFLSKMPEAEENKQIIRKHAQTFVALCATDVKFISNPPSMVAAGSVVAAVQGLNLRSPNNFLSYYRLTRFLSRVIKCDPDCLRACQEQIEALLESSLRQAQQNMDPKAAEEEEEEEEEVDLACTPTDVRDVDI

CSNK2A1 (human) = CSNK2A1 (human) (UniProt P68400); conditions: compound 10.0 µM; ATP 0.1 µM
EGFR (human) = EGFR (human) (UniProt P00533); conditions: compound 10.0 µM; ATP 0.3 µM
EPHB4 (human) = EPHB4 (human) (UniProt P54760); conditions: compound 10.0 µM; ATP 1 µM
ERBB2 (human) = ERBB2 (human) (UniProt P04626); conditions: compound 10.0 µM; ATP 1 µM
IGF1R (human) = IGF1R (human) (UniProt P08069); conditions: compound 10.0 µM; ATP 1 µM
Chain of IGF1R (human) (P08069 whole entry, looked up): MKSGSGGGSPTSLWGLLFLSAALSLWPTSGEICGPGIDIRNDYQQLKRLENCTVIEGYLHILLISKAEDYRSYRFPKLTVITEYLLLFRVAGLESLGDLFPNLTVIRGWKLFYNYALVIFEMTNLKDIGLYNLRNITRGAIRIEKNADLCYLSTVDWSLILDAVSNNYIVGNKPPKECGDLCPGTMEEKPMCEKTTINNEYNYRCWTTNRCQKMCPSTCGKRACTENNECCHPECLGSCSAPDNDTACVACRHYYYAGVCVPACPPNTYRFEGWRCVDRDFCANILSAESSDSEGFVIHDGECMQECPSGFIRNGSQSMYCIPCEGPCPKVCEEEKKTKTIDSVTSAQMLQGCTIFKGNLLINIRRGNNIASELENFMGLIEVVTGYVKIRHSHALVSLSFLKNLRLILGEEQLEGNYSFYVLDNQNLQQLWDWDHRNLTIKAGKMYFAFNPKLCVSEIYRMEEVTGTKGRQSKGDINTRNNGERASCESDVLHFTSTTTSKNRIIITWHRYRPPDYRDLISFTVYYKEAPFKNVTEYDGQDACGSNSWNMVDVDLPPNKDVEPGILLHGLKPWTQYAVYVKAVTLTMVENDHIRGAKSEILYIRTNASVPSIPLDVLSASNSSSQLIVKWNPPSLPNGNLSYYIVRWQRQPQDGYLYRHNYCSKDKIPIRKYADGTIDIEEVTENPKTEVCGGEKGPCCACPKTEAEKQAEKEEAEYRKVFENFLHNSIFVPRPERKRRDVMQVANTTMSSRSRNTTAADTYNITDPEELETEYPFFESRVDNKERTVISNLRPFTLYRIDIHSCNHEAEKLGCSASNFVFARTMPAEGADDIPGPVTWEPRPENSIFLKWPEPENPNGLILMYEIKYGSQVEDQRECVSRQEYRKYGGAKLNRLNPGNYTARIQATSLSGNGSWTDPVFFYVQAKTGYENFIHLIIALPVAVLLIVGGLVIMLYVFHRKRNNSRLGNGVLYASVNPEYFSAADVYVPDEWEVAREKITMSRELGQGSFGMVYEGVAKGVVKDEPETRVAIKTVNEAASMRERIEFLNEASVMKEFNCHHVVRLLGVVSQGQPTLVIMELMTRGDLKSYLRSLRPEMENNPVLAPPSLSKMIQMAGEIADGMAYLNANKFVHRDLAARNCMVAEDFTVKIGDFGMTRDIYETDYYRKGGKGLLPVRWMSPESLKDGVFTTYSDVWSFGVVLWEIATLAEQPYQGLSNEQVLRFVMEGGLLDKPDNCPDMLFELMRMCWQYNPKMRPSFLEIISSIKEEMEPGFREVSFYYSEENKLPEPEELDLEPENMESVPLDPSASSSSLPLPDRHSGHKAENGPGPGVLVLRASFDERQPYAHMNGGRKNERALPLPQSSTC

KDR (human) = KDR (human) (UniProt P35968); conditions: compound 10.0 µM; ATP 1 µM
MAP3K8 (human) = MAP3K8 (human) (UniProt P41279); conditions: compound 10.0 µM; ATP 3 µM
MAPK10 (human) = MAPK10 (human) (UniProt P53779); conditions: compound 10.0 µM; ATP 0.3 µM
MAPK14 (human) = MAPK14 (human) (UniProt Q16539); conditions: compound 10.0 µM; ATP 1 µM
Chain of MAPK14 (human) (Q16539 whole entry, looked up): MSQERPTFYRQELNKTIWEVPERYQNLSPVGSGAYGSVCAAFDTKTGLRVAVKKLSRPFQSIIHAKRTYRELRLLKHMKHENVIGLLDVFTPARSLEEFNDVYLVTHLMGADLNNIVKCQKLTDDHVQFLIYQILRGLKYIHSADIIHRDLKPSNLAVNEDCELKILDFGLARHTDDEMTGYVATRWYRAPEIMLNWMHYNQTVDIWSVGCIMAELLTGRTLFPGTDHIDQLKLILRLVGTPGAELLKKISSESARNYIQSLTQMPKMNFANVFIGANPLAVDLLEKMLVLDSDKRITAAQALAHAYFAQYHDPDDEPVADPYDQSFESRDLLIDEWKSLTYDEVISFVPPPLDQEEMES

MET (human) = MET (human) (UniProt P08581); conditions: compound 10.0 µM; ATP 0.3 µM
NUAK1 (human) = NUAK1 (human) (UniProt O60285); conditions: compound 10.0 µM; ATP 1 µM
PDGFRB (human) = PDGFRB (human) (UniProt P09619); conditions: compound 10.0 µM; ATP 0.3 µM
Chain of PDGFRB (human) (P09619 whole entry, looked up): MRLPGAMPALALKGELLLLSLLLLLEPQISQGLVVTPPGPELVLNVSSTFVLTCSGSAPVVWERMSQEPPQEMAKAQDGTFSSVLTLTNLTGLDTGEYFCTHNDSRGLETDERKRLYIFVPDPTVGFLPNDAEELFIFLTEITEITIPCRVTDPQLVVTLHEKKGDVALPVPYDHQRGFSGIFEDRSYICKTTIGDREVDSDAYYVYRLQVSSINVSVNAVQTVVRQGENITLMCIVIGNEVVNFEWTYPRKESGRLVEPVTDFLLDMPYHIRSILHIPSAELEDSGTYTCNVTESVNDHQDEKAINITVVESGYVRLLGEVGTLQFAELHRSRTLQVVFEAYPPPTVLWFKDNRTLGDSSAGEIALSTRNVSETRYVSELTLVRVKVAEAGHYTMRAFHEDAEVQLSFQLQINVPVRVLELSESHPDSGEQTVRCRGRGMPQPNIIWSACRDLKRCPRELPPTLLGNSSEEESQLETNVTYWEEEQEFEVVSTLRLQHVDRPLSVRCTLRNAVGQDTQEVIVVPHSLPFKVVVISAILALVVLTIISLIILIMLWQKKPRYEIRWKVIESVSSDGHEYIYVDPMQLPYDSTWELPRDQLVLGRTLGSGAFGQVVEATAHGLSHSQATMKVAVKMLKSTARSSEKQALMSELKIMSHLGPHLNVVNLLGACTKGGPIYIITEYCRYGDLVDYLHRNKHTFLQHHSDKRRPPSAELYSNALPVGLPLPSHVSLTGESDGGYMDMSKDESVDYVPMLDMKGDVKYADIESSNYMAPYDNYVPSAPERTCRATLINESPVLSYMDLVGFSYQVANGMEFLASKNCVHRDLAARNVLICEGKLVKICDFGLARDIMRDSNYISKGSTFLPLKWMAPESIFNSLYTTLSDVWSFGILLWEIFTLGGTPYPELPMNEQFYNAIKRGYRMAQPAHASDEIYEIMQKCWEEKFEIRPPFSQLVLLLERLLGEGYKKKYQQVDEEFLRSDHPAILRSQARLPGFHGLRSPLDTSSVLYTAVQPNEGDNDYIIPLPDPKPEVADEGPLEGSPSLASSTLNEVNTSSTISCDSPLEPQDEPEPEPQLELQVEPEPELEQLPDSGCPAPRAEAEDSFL

PLK1 (human) = PLK1 (human) (UniProt P53350); conditions: compound 10.0 µM; ATP 1 µM
PLK4 (human) = PLK4 (human) (UniProt O00444); conditions: compound 10.0 µM; ATP 0.3 µM
PTK2 (human) = PTK2 (human) (UniProt Q05397); conditions: compound 10.0 µM; ATP 1 µM
SRC (human) = SRC (human) (UniProt P12931); conditions: compound 10.0 µM; ATP 0.3 µM
TEK (human) = TEK (human) (UniProt Q02763); conditions: compound 10.0 µM; ATP 1 µM

Chain of AXL (human) (P30530 whole entry, looked up): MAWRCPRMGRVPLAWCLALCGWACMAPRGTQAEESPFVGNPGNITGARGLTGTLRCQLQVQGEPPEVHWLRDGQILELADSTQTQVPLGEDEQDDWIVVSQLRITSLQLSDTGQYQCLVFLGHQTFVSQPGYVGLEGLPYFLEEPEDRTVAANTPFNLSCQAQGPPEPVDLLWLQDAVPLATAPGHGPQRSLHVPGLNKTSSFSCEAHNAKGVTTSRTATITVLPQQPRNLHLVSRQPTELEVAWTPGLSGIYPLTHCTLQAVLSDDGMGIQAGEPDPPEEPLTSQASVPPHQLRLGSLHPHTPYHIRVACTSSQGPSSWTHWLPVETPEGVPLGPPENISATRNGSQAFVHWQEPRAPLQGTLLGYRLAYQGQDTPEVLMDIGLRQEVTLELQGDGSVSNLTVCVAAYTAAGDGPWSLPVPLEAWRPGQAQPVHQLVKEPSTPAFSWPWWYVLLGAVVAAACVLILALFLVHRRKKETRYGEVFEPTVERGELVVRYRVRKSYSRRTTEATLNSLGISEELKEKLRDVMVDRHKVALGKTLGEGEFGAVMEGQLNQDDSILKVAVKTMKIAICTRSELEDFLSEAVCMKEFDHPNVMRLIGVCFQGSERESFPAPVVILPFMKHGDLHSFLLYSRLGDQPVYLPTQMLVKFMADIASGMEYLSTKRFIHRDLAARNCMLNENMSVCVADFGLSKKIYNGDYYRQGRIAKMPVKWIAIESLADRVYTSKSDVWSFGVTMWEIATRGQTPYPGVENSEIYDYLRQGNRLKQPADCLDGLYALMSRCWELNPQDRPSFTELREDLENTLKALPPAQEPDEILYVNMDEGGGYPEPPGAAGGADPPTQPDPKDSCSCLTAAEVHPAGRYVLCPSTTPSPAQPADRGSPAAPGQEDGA
Chain of AURKA (human) (O14965 whole entry, looked up): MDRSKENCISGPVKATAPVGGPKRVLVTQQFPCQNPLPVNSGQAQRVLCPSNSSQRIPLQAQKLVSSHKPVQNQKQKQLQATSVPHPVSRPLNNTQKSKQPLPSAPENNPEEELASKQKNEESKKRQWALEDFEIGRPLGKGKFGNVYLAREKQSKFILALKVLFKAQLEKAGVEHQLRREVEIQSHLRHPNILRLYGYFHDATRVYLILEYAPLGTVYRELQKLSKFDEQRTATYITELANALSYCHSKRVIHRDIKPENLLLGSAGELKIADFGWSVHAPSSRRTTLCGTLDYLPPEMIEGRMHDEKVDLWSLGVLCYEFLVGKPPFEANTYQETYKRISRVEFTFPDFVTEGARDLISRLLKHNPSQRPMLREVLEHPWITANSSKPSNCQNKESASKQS

Structure (SMILES)	residual activity (AKT1 (human)) [%]	residual activity (AURKA (human)) [%]	residual activity (AURKB (human)) [%]	residual activity (AXL (human)) [%]	residual activity (CDK2 CCNA2 (human)) [%]	residual activity (CDK4 CCND1 (human)) [%]	residual activity (CSNK2A1 (human)) [%]	residual activity (EGFR (human)) [%]	residual activity (EPHB4 (human)) [%]	residual activity (ERBB2 (human)) [%]	residual activity (IGF1R (human)) [%]	residual activity (KDR (human)) [%]	residual activity (MAP3K8 (human)) [%]	residual activity (MAPK10 (human)) [%]	residual activity (MAPK14 (human)) [%]	residual activity (MET (human)) [%]	residual activity (NUAK1 (human)) [%]	residual activity (PDGFRB (human)) [%]	residual activity (PLK1 (human)) [%]	residual activity (PLK4 (human)) [%]	also measured
COc1ccc(C(=O)Nc2cc(-c3nc(SC)n(C)c3-c3ccc(F)cc3)ccn2)cc1	113	97	87	54	37	76	72	7	33	17	23	8	87	18	3	52	95	48	81	20	residual activity (PTK2 (human)): 131%; residual activity (SRC (human)): 9%; residual activity (TEK (human)): 21%
CSc1nc(-c2ccnc(N(C(=O)C3CC3)C(=O)C3CC3)c2)c(-c2ccc(F)cc2)n1C	122	56	57	38	211	112	90	26	21	26	36	14	106	18	4	99	106	50	118	54	residual activity (PTK2 (human)): 79%; residual activity (SRC (human)): 19%; residual activity (TEK (human)): 24%
CSc1nc(-c2ccnc(NC(C)=O)c2)c(-c2ccc(F)cc2)n1C	154	58	78	52	111	102	88	17	32	31	78	13	74	11	1	79	104	26	109	70	residual activity (PTK2 (human)): 71%; residual activity (SRC (human)): 29%; residual activity (TEK (human)): 24%
CSc1nc(-c2ccnc(NC(=O)C3CCCC3)c2)c(-c2ccc(F)cc2)n1C	100	72	92	62	88	105	91	30	39	48	53	49	88	16	3	91	100	65	107	46	residual activity (PTK2 (human)): 80%; residual activity (SRC (human)): 43%; residual activity (TEK (human)): 35%

Second part, led by results:

residual activity (AKT1 (human)) [%]	residual activity (AURKA (human)) [%]	residual activity (AURKB (human)) [%]	residual activity (AXL (human)) [%]	residual activity (CDK2 CCNA2 (human)) [%]	residual activity (CDK4 CCND1 (human)) [%]	residual activity (CSNK2A1 (human)) [%]	residual activity (EGFR (human)) [%]	residual activity (EPHB4 (human)) [%]	residual activity (ERBB2 (human)) [%]	residual activity (IGF1R (human)) [%]	residual activity (KDR (human)) [%]	residual activity (MAP3K8 (human)) [%]	residual activity (MAPK10 (human)) [%]	residual activity (MAPK14 (human)) [%]	residual activity (MET (human)) [%]	residual activity (NUAK1 (human)) [%]	residual activity (PDGFRB (human)) [%]	residual activity (PLK1 (human)) [%]	residual activity (PLK4 (human)) [%]	Structure (SMILES)	also measured
110	53	66	80	90	102	93	2	18	2	68	3	101	12	1	45	106	16	86	57	N#CCSc1nc(-c2ccncc2)c(-c2ccc(F)cc2)[nH]1	residual activity (PTK2 (human)): 71%; residual activity (SRC (human)): 8%; residual activity (TEK (human)): 10%
147	78	63	85	64	87	71	49	56	31	33	51	79	64	11	54	94	54	94	33	CSc1ccc(CSc2nc(-c3ccncc3)c(-c3ccc(Br)cc3)[nH]2)cc1	residual activity (PTK2 (human)): 122%; residual activity (SRC (human)): 30%; residual activity (TEK (human)): 21%
122	75	78	84	72	59	96	24	48	41	43	45	69	81	41	66	77	80	93	56	Fc1ccc(-c2[nH]c(SCCc3ccccc3)nc2-c2ccncc2)cc1	residual activity (PTK2 (human)): 95%; residual activity (SRC (human)): 43%; residual activity (TEK (human)): 51%
75	38	32	61	32	36	73	2	21	3	16	17	35	11	0	25	45	34	39	5	Fc1ccc(-c2[nH]c(/C=C/c3ccccc3)nc2-c2ccncc2)cc1	residual activity (PTK2 (human)): 82%; residual activity (SRC (human)): 8%; residual activity (TEK (human)): 6%
144	52	55	76	126	121	95	3	35	2	79	7	91	17	2	58	121	35	103	42	Oc1cccc(CSc2nc(-c3ccncc3)c(-c3ccc(F)cc3)[nH]2)c1	residual activity (PTK2 (human)): 88%; residual activity (SRC (human)): 12%; residual activity (TEK (human)): 18%
